The target in assay [1] is Dual specificity protein kinase CLK1 (Homo sapiens, UniProt P49759). The experiment in a line: Selectivity interaction (Ambit KINOMEscan and KiNATiv profiling in Jurkat cells) EUB0000090b CLK1. The format is cell-based. As to conditions: at 1 µM.
The target of assay [2] is Serine/threonine-protein kinase N2 (Homo sapiens, UniProt Q16513). The experiment in a line: Selectivity interaction (Ambit KINOMEscan and KiNATiv profiling in Jurkat cells) EUB0000090b PKN2. As to conditions: at 1 µM. Format: cell-based.
Chain of Serine/threonine-protein kinase N2 (Q16513 whole entry, looked up): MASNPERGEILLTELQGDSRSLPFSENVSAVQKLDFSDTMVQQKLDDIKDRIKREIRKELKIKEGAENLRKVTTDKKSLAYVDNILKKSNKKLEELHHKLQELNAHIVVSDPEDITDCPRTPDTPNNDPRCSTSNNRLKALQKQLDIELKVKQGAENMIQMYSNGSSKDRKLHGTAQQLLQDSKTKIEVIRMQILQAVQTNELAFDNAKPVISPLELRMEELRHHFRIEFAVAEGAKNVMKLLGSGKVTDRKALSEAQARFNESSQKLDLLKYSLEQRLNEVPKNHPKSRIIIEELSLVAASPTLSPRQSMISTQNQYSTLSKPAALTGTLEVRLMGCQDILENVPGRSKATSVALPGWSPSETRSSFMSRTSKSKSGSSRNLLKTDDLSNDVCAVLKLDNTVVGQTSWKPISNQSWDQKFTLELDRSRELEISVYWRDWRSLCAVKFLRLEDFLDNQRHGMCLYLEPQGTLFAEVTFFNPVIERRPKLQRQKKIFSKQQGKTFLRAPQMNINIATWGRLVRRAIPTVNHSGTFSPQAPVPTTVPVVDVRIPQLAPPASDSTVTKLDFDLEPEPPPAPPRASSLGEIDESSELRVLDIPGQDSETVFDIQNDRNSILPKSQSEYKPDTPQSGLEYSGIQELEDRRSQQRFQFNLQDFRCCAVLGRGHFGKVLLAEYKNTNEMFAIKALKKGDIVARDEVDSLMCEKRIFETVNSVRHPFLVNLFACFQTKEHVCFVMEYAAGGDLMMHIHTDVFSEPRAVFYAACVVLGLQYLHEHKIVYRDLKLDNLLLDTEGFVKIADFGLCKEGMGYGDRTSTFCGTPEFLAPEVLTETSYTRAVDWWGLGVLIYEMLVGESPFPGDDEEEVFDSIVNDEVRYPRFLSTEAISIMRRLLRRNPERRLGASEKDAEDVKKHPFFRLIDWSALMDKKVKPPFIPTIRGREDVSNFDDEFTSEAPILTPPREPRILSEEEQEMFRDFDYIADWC
The target of assay [3] is T1, Serine/threonine-protein kinase haspin (Homo sapiens) (UniProt Q8TF76).
T1 sequence (whole entry): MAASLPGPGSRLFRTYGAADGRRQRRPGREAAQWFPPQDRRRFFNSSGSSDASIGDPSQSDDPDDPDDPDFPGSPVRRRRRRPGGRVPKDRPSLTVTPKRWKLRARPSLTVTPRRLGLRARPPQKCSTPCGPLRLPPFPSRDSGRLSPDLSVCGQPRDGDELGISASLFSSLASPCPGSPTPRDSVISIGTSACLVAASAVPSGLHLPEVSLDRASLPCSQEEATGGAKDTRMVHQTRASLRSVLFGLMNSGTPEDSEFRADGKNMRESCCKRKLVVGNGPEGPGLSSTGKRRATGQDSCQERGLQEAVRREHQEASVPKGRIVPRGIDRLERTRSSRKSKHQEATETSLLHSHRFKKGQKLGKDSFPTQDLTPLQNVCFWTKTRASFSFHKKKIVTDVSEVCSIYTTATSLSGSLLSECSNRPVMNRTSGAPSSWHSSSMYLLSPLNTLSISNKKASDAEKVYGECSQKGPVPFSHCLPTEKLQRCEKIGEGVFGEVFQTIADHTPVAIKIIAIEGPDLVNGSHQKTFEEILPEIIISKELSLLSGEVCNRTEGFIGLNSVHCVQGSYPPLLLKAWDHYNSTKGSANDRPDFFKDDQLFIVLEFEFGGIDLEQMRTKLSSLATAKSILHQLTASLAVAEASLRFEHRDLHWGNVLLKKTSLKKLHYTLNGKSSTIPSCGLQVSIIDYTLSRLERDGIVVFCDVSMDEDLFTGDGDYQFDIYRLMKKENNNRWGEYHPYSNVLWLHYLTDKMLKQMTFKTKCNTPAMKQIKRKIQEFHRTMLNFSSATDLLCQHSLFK
The experiment in a line: Selectivity interaction (KinomeScan (DiscoverX)) EUB0000666a GSG2. Conditions: at 10 µM.

The target of assay [4] is Beta-3 adrenergic receptor (Homo sapiens) (UniProt P13945). The assay is described as follows: Selectivity interaction (GPCR panel (PDSP screen)) EUB0001079a ADRB3. Conditions: at 10 µM.
Chain of Beta-3 adrenergic receptor (Homo sapiens) (P13945 whole entry, looked up): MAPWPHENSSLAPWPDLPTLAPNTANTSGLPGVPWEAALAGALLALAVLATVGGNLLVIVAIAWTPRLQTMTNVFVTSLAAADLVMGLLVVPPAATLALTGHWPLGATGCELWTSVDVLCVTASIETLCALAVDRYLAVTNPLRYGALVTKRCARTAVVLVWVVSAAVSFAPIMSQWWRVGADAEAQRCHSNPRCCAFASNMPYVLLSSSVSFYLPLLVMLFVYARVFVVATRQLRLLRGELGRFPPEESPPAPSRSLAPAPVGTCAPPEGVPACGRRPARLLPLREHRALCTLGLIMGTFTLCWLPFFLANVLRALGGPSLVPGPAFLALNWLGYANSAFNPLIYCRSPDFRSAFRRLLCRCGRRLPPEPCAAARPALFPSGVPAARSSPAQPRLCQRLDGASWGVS
Assay [5] addresses T2, Serine/threonine-protein kinase Sgk2 (Homo sapiens) (UniProt Q9HBY8).
T2 sequence (whole entry): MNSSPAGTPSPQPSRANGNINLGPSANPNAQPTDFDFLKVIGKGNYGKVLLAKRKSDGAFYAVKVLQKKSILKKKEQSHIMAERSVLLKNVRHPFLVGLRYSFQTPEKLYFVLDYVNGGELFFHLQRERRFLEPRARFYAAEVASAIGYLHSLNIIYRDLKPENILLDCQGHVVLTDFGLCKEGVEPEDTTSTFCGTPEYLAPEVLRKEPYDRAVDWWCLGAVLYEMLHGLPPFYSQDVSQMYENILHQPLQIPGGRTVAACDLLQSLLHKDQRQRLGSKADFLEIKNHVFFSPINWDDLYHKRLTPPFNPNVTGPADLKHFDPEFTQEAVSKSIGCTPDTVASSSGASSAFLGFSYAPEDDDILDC
The experiment in a line: Selectivity interaction (ProQinase) EUB0000171b SGK2.

Assay [6] deals with T3, Tyrosine-protein kinase ITK/TSK (Homo sapiens) (UniProt Q08881).
T3 sequence (whole entry): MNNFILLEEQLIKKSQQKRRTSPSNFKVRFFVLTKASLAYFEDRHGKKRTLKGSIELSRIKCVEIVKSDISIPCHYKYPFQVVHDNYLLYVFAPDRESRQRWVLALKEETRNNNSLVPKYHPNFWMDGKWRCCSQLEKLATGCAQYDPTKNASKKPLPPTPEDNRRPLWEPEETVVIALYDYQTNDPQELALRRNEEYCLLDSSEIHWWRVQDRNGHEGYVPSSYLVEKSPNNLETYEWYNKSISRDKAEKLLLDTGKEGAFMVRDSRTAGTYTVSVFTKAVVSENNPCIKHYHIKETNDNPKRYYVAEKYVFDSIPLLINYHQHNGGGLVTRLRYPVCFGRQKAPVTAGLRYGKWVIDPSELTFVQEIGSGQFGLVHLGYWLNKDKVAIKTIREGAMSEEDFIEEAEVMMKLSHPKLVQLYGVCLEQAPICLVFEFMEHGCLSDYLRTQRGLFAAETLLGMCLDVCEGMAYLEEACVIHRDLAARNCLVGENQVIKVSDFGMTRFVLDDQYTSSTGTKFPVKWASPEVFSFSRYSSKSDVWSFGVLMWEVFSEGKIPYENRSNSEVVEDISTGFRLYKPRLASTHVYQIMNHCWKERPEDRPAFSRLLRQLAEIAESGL
The experiment in a line: Selectivity interaction (Upstate Kinase Profiler service (Millipore)) EUB0000056c ITK. Conditions: at 1 µM.

Assay [7] has as its target Proto-oncogene tyrosine-protein kinase ROS (Homo sapiens) (UniProt P08922). The experiment in a line: Selectivity interaction (KinomeScan (DiscoverX)) EUB0000595a ROS1. Conditions: at 10 µM.

Chain of Proto-oncogene tyrosine-protein kinase ROS (Homo sapiens) (P08922 whole entry): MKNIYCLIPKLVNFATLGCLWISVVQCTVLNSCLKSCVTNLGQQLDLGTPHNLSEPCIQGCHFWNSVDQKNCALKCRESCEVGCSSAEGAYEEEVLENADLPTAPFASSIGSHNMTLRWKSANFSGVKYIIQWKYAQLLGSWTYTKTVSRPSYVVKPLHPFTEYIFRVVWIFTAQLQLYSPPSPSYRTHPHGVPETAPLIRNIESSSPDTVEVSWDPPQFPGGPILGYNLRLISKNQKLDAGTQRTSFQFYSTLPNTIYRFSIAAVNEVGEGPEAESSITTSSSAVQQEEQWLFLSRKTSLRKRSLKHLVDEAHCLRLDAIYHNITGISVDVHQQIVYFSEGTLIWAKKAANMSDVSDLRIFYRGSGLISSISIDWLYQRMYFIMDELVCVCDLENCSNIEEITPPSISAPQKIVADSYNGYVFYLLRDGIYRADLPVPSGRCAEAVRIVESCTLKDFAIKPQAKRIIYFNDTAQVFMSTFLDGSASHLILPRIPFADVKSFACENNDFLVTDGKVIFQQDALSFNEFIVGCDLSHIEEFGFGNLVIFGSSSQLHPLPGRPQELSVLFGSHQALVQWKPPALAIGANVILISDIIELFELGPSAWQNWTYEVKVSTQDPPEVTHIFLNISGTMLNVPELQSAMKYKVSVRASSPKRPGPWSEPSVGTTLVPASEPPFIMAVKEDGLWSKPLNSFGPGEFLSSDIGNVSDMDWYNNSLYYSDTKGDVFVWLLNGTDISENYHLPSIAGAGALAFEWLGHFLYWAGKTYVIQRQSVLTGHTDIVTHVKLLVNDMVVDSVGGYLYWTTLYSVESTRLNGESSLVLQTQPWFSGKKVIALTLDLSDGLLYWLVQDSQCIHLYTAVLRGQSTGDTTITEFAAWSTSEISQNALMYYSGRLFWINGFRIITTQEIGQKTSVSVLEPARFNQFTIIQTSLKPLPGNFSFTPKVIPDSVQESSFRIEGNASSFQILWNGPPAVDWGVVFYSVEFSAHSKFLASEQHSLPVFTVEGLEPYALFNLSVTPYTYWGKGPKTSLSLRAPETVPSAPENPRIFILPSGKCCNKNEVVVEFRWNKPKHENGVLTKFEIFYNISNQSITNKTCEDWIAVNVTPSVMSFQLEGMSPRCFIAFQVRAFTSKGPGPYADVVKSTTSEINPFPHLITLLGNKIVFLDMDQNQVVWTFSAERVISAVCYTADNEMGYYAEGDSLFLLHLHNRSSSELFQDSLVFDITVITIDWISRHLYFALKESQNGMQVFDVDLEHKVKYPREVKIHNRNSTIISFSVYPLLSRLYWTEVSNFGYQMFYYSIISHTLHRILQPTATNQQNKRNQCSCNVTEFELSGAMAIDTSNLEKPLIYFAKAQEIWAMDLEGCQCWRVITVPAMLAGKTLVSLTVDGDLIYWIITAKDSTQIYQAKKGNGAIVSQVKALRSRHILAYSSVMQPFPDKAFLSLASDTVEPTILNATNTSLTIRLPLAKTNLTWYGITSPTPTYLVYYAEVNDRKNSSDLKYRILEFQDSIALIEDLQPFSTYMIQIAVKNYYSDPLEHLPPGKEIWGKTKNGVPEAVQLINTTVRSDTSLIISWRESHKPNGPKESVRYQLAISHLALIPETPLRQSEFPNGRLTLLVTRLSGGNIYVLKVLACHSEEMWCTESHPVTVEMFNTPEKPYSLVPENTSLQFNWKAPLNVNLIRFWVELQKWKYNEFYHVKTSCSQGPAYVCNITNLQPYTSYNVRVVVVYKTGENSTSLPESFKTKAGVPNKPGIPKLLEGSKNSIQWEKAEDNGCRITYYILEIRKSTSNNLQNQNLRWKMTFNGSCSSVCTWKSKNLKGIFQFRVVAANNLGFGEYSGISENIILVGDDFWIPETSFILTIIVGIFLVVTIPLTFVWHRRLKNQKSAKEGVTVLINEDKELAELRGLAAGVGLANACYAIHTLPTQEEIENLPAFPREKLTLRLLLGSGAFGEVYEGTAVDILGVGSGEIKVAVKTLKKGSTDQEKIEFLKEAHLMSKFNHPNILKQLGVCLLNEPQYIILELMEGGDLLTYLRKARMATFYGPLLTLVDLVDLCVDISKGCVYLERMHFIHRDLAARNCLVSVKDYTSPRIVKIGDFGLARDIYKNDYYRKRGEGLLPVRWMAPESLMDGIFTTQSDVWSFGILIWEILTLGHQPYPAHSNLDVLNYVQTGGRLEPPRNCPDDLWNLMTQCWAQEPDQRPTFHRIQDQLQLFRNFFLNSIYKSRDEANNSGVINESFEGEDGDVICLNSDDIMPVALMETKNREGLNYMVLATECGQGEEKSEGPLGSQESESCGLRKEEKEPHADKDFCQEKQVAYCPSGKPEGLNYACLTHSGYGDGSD
Chain of Dual specificity protein kinase CLK1 (P49759 whole entry, looked up): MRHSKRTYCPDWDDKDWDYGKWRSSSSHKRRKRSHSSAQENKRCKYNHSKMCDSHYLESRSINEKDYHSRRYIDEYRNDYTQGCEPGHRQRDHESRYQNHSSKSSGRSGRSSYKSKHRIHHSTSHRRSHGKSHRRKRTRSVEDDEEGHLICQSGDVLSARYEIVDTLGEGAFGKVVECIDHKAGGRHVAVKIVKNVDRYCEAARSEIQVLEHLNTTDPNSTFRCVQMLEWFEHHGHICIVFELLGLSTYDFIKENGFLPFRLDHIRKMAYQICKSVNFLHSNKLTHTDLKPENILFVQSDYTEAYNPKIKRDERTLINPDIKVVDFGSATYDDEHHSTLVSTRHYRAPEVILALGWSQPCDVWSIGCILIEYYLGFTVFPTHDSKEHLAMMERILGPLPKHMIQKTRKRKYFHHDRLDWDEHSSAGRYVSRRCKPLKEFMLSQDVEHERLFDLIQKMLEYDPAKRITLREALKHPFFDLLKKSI

As for `CN(C)C/C=C/C(=O)Nc1ccc(C(=O)N2CCCC(Nc3ncc(Cl)c(-c4c[nH]c5ccccc45)n3)C2)cc1` (stereo not drawn), the % of control in assay [1] was 62%; in assay [2] it was 98%.
As for `O=C(NOC[C@H](O)CO)c1ccc(F)c(F)c1Nc1ccc(I)cc1F`, the % of control in assay [3] was 100%.
For the molecule `Nc1cnc(N2CCc3cc(S(=O)(=O)Nc4c(F)cc(Cl)cc4F)cc(N4CCCC4=O)c32)nc1` [TP-020n], the % of inhibition in assay [4] is -2.69%.
Turning to `C=CC(=O)Nc1cccc(C(=O)Nc2ccc(Nc3cc(-c4[nH]c(SC)nc4C)ccn3)cc2)c1`, the figures for the % of control in assay [5] (at 1 µM) and in assay [5] (at 5 µM) were 93% and 71%, respectively.
Take `Cc1ccc(-c2ccc3c(ccc4sc5c(c43)NC[C@@H](C)NC5=O)n2)cn1`: the % of inhibition in assay [6] was -1%.
The molecule `COCC(=O)NC/C=C/c1ccc2ncnc(Nc3ccc(Oc4ccc(C)nc4)c(C)c3)c2c1` [CP-724714] had a % of control in assay [7] of 100%.

The values are drawn from ChEMBL document CHEMBL5465560, “Selectivity Literature for EUbOPEN Chemogenomic Library” (2024).
